Experimental data from patent US20040009464A1, “Methods for identifying compounds for inhibition of neoplastic lesions, and pharmacetical compositions containing such compounds” (priority 1998, published 2004).

Key:
[1] = test system: PKG in HCT116 colon cancer cells; assay: PKG activity assay on lysates of drug-treated HCT116 cells; format: cell-based
Description: To test the effect of cGMP-specific PDE inhibition on neoplasia containing the β-catenin mutation, HCT116 colon cancer celis were employed. HCT116 is known to contain the β-catenin mutation, but is known not to contain the APC mutation.
The same procedure is used to grow the HCT116 cells as is used in the SW480 procedure described above. In this experiment, only exisulind and controls were used.

[2] = test system: premalignant lesions in mouse mammary gland organ culture; assay: Mammary gland organ culture model; format: cell-based; conditions: FIG. 17
Description: Test compounds identified by the above methods can be tested for antineoplastic activity by their ability to inhibit the incidence of pre-neoplastic lesions in a mammary gland organ culture system. This mouse mammary gland organ culture technique has been successfully used by other investigators to study the effects of known antineoplastic agents such as certain NSAIDs, retinoids, tamoxifen, selenium, and certain natural products, and is useful for validation of the screening method of the present invention.
For example, female BALB/c mice can be treated with a combination of estradiol and progesterone daily, in order to prime the glands to be responsive to hormones in vitro. The animals are sacrificed, and thoracic mammary glands are excised aseptically and incubated for ten days in growth media supplemented with insulin, prolactin, hydrocortisone, and aldosterone. DMBA (7,12-dimethylbenz(a)anthracene) is added to medium to induce the formation of premalignant lesions Fully developed glands are then deprived of prolactin, hydrocortisone, and aldosterone, resulting in the regression of the glands but not the pre-malignant lesions.
The test compound is dissolved in DMSO and added to the culture media for the duration of the culture period. At the end of the culture period, the glands are fixed in 10% formalin, stained with alum camine, and mounted on glass slides. The incidence of forming mammary lesions is the ratio of the glands with mammary lesions to […]. The incidence of mammary lesions in test compound treated glands is compared with that of the untreated glands.
The extent of the area occupied by the mammary lesions can be quantitated by projecting an image of the gland onto a digitation pad. The area covered by the gland is traced on the pad and considered as 100% of the area. The space covered by each of the non-regressed structures is also outlined on the digitization pad and quantitated by the computer.
Mammary gland organ culture experiment were performed as previously described (Mehta and Moon, Cancer Research, 46: 5832-5835, 1986). […]

[3] = test system: PKG in SW480 colon cancer cells; assay: PKG activity assay on lysates of drug-treated SW480 cells; format: cell-based, human; conditions: SW480, 48 hrs, with and without added cGMP
Description: That sequence is known and described in the literature below. […] One way to bind the PDE5 sequences to a solid phase is to express those sequences as a fusion protein of the PDE5 sequence and one member of an amino acid binding pair, and chemically link the other member of that amino acid binding pair to a solid phase (e.g., beads). One binding pair that can be used is glutathione S-transferase (“GST”) and glutathione (“GSH”), with the GST being expressed as a fusion protein with the PDE5 sequence described above, and the GSH bound covalently to the solid phase. In this fashion, the PDE5 sequence/GST fusion protein can be bound to a solid phase simply by passing a solution containing the fusion protein over the solid phase, as described below.
To assay a liquid sample believed to contain PKG using the PDE5-bound solid phase described above, the sample and the solid phase are mixed with phosphorylation buffer containing ^32P-γ-ATP. The solution is incubated for 30 minutes at 30° C. to allow for phosphorylation of the PDE5 sequence by PKG to occur, if PKG is present. […]
For each control or drug cell lysate sample to be evaluated, the reaction is started by adding phosphorylation buffer containing 10 μCi ^32P-γ-ATP solution (200 μM ATP, 4.5 mM MgCl; 5 mM KH2PO4; 5 mM K2HPO4;) to each mixture. […]

[4] = biological target: T1, cGMP binding sites of GST-cGB-PDE5 fusion protein (Homo sapiens, UniProt O76074); assay: cGMP binding assay with GST-cGB-PDE5 fusion protein; conditions: FIG. 24
T1 construct: made in house; host or cells: E. coli BL21 (DE3)
T1 sequence (O76074 46-539 limits assumed): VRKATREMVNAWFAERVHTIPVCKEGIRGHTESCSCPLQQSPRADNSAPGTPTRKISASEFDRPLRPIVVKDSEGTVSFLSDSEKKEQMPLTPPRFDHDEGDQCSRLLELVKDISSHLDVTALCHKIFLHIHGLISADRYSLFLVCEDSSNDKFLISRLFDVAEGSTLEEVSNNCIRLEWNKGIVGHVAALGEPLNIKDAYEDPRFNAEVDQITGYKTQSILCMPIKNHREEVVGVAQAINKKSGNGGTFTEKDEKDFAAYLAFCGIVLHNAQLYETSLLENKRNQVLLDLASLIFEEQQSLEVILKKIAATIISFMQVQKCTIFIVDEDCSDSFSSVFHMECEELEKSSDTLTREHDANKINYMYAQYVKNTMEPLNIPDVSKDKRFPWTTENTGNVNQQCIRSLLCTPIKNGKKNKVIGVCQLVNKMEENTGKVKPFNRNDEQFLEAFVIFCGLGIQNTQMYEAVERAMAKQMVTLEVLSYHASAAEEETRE

## CC1=C(CC(=O)O)c2cc(F)ccc2/C1=C\c1ccc(S(C)(=O)=O)cc1 [Exisulind, 5-fluoro-2-methyl-1-(p-methylsulfonylbenzylidene)-3-indenylacetic acid]
[1]
  PKG activity relative to control: PKG that was phosphorylated to a greater extent than the corresponding controls
[2]
  inhibition of premalignant lesions in mammary gland organ culture: effectively inhibit the formation of premalignant lesions
[3]
  PKG activity relative to control: causes PKG activity to increase in a dose-dependent manner
[4]
  competition with cGMP (2 μM) in binding of GST-cGB-PDE5: None of the PDE5 inhibitors showed any competition
